pIC50: −log10 of the molar value. Read-outs that look alike come from different tables or passages of the source.
Target: T1, ligand binding domain of human RORγ (A262-S507) (Homo sapiens, UniProt P51449)
T1 construct: made in house; host or cells: E. coli
T1 sequence (P51449 262-507): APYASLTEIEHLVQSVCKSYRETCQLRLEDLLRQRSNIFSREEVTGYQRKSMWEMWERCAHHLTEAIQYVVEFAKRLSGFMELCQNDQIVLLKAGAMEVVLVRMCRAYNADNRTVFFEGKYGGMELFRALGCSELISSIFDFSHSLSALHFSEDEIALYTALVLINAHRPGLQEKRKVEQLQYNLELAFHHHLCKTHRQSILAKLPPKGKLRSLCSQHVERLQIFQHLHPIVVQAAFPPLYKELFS
Experiment: General RORγ SPA binding assay (competition with [3H]25-hydroxycholesterol)
Conditions: inhibition of [3H]25-hydroxycholesterol binding
Outline: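 N-terminally His-tagged protein was expressed in E. coli and nickel-purified. Then 50 nM protein was preincubated with compound for 15 min at room temperature in PBS with 0.5% fatty acid free BSA, followed by radioligand for 15 min and copper His-tag SPA beads for 30 min. IC50 came from percent inhibition of binding.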

[1] = RORγ SPA binding assay, read-out: IC50

Row | Structure (SMILES) | pIC50 [1] | pIC50 (IC50, RORγ SPA binding assay)
1 | CC(O)(COc1ccnc(C(F)(F)F)n1)c1cnc(NCC(F)F)nc1C1CCN(C(=O)Nc2c(F)cccc2F)CC1 (stereo not drawn) [Compound D39, 4-{2-[(2,2-Difluoroethyl)amino]-5-(1-hydroxy-1-methyl-2-{[2-(trifluoromethyl)pyrimidin-4-yl]oxy}ethyl)pyrimidin-4-yl}-N-(2,6-difluorophenyl)piperidine-1-carboxamide] | 8.29 | –
2 | C/C(=N\Oc1ccnc(C(F)(F)F)c1)c1cnc(N(C)C)nc1C1CCN(C(=O)Nc2c(F)cccc2F)CC1 [Compound B61, N-(2,6-Difluorophenyl)-4-{2-(dimethylamino)-5-[(1E)-N-{[2-(trifluoromethyl)pyridin-4-yl]oxy}ethanimidoyl]pyrimidin-4-yl}piperidine-1-carboxamide] | 6.44 | –
3 | COc1nc(C)c(-c2nnc(-c3cccc(C(F)(F)F)n3)o2)c(C2CCN(C(=O)Nc3c(F)cccc3F)CC2)n1 [Compound C60, N-(2,6-Difluorophenyl)-4-[6-methyl-2-(methyloxy)-5-{5-[6-(trifluoromethyl)pyridin-2-yl]-1,3,4-oxadiazol-2-yl}pyrimidin-4-yl]piperidine-1-carboxamide] | 6.69 | –
4 | Cc1cc(C)cc(COC(C)(COC[C@H](O)CO)c2cnc(C)nc2C2CCN(C(=O)Cc3c(F)cccc3F)CC2)c1 (mixture of isomers) [Compound E9, 2-(2,6-Difluorophenyl)-1-(4-(5-(1-((R)-2,3-dihydroxypropoxy)-2-(3,5-dimethylbenzyloxy)propan-2-yl)-2-methylpyrimidin-4-yl)piperidin-1-yl)ethanone] | 8.21 | –
5 | Cc1nc(C)c(C(=O)NCc2ccnc(C(F)(F)F)c2)c(C2CCN(C(=O)Cc3c(F)cccc3F)CC2)n1 [Compound A61, 4-(1-(2-(2,6-difluorophenyl)acetyl)piperidin-4-yl)-2,6-dimethyl-N-((2-(trifluoromethyl)pyridin-4-yl)methyl)pyrimidine-5-carboxamide] | 7.42 | –
6 | Cc1nc(C)c(C(=O)NCc2ccnc(C#N)c2)c(C2CCN(C(=O)Cc3c(F)cccc3F)CC2)n1 [Compound A83, N-((2-cyanopyridin-4-yl)methyl)-4-(1-(2-(2,6-difluorophenyl)acetyl)piperidin-4-yl)-2,6-dimethylpyrimidine-5-carboxamide] | 7.34 | –
7 | Cc1ncc(C(F)(F)CNc2nccc(C(F)(F)F)n2)c(C2CCN(C(=O)Cc3c(F)cccc3F)CC2)n1 [Compound N21, N-[2-(4-{1-[(2,6-Difluorophenyl)acetyl]piperidin-4-yl}-2-methylpyrimidin-5-yl)-2,2-difluoroethyl]-4-(trifluoromethyl)pyrimidin-2-amine] | 7.85 | –
8 | Cc1nc(C2CCN(C(=O)Cc3c(F)cccc3F)CC2)c(/C=N/Oc2cccc(C(F)(F)F)c2)c(=O)[nH]1 [Compound I6, (E)-4-(1-(2-(2,6-Difluorophenyl)acetyl)piperidin-4-yl)-2-methyl-6-oxo-1,6-dihydropyrimidine-5-carbaldehyde O-3-(trifluoromethyl)phenyl oxime] | 7.22 | –
9 | Cc1cc(C)cc(CNC(=O)c2cnc(C)nc2C2CCN(C(=O)Cc3ccccc3OC(F)(F)F)CC2)c1 [Compound A9, N-(3,5-dimethylbenzyl)-2-methyl-4-(1-(2-(2-(trifluoromethoxy)phenyl)acetyl)piperidin-4-yl)pyrimidine-5-carboxamide] | 7.50 | –
10 | Cc1nc(C)c(C(=O)NCc2ccnc(C(F)(F)F)n2)c(C2CCN(C(=O)Oc3ccccc3F)CC2)n1 [Compound A124, 2-Fluorophenyl 4-{2,6-dimethyl-5-[({[2-(trifluoromethyl)pyrimidin-4-yl]methyl}amino)carbonyl]pyrimidin-4-yl}piperidine-1-carboxylate] | – | 7.94
11 | Cc1ncc(C(=O)NCc2cccc(Cl)c2)c(C2(F)CCN(C(=O)Cc3c(F)cccc3F)CC2)n1 [Compound A103, N-(3-Chlorobenzyl)-4-(1-(2-(2,6-difluorophenyl)acetyl)-4-fluoropiperidin-4-yl)-2-methylpyrimidine-5-carboxamide] | 8.47 | –
12 | CC(O)(COc1ccnc(C(F)(F)F)n1)c1cnc(N)nc1C1CCN(C(=O)Cc2c(F)cccc2F)CC1 (stereo not drawn) [Compound D30, 2-(2-Amino-4-{1-[(2,6-difluorophenyl)acetyl]piperidin-4-yl}pyrimidin-5-yl)-1-{[2-(trifluoromethyl)pyrimidin-4-yl]oxy}propan-2-ol] | 8.37 | –
13 | Cc1cc(C)cc(CNC(=O)c2cnc(C)nc2C2CCN(C(=O)Cc3ccccc3Cl)CC2)c1 [Compound A7, 4-(1-(2-(2-chlorophenyl)acetyl)piperidin-4-yl)-N-(3,5-dimethylbenzyl)-2-methylpyrimidine-5-carboxamide] | 7.55 | –
14 | Cc1nc(C)c(-c2nnc(-c3ccnc(C(F)(F)F)n3)o2)c(C2CCN(C(=O)Nc3c(Cl)cccc3Cl)CC2)n1 [Compound C31, N-(2,6-dichlorophenyl)-4-(2,6-dimethyl-5-{5-[2-(trifluoromethyl)pyrimidin-4-yl]-1,3,4-oxadiazol-2-yl}pyrimidin-4-yl)piperidine-1-carboxamide] | 7.30 | –
15 | CNC(=O)C(O)(COc1cccc(C(F)(F)F)n1)c1cnc(C)nc1C1CCN(C(=O)Nc2c(F)cccc2F)CC1 (stereo not drawn) [Compound N45, N-(2,6-Difluorophenyl)-4-{5-[1-hydroxy-2-(methylamino)-2-oxo-1-({[6-(trifluoromethyl)pyridin-2-yl]oxy}methyl)ethyl]-2-methylpyrimidin-4-yl}piperidine-1-carboxamide] | 7.09 | –

Second part, led by results:

Row | pIC50 [1] | Structure (SMILES) | pIC50 (IC50, RORγ SPA binding assay)
16 | 8.27 | CN(C)c1ncc(C(=O)NCc2cccc(Cl)c2)c(C2CCN(C(=O)Cc3c(F)cccc3F)CC2)n1 [Compound A88, N-(3-chlorobenzl)-4-(1-(2-(2,6-difluorophenyl)acetyl)piperidin-4-yl)-2-(dimethylamino)pyrimidine-5-carboxamide] | –
17 | 8.77 | C/C(=N\Oc1cccc(C)c1)c1cnc(C)nc1C1CCN(C(=O)Cc2c(F)cccc2F)CC1 [Compound B11, (E)-2-(2,6-difluorophenyl)-1-(4-(2-methyl-5-(1-((m-tolyloxy)imino)ethyl)pyrimidin-4-yl)piperidin-1-yl)ethanone] | –
18 | 7.20 | Cc1ncc(C(=O)NCc2cccc(Cl)c2C)c(C2CCN(C(=O)Cc3c(F)cccc3F)CC2)n1 [Compound A63, N-(3-chloro-2-methylbenzyl)-4-(1-(2-(2,6-difluorophenyl)acetyl)piperidin-4-yl)-2-methylpyrimidine-5-carboxamide] | –
19 | 7.71 | Cc1ncc(C(=O)NCc2ccnc(Cl)c2)c(C2CCN(C(=O)Cc3c(F)cccc3F)CC2)n1 [Compound A56, N-((2-chloropyridin-4-yl)methyl)-4-(1-(2-(2,6-difluorophenyl)acetyl)piperidin-4-yl)-2-methylpyrimidine-5-carboxamide] | –
20 | 7.90 | C/C(=N/Oc1cc(Cl)nc(C(F)(F)F)c1)c1cnc(C)nc1C1CCN(C(=O)Nc2c(F)cccc2F)CC1 [Compound B41, 4-{5-[(1Z)—N-{[2-chloro-6-(trifluoromethyl)pyridin-4-yl]oxy}ethanimidoyl]-2-methylpyrimidin-4-yl}-N-(2,6-difluorophenyl)piperidine-1-carboxamide] | –
21 | 8.66 | C/C(=N\Oc1cc(F)cc(Cl)c1)c1cnc(C)nc1C1CCN(C(=O)Cc2c(F)cccc2F)CC1 [Compound B12, (E)-1-(4-(5-(1-((3-chloro-5-fluorophenoxy)imino)ethyl)-2-methylpyrimidin-4-yl)piperidin-1-yl)-2-(2,6-difluorophenyl)ethanone] | –
22 | 8.24 | Nc1ncc(C(=O)NCc2cccc(Cl)c2)c(C2CCN(C(=O)Cc3c(F)cccc3F)CC2)n1 [Compound A89, 2-amino-N-(3-chlorobenzyl)-4-(1-(2-(2,6-difluorophenyl)acetyl)piperidin-4-yl)pyrimidine-5-carboxamide] | –
23 | 8.03 | C/C(=N\Oc1cc(F)ccc1C)c1cnc(C)nc1C1CCN(C(=O)Cc2c(F)cccc2F)CC1 [Compound B17, (E)-2-(2,6-difluorophenyl)-1-(4-(5-(1-((5-fluoro-2-methylphenoxy)imino)ethyl)-2-methylpyrimidin-4-yl)piperidin-1-yl)ethanone] | –
24 | 8.20 | Cc1ncc(C(=O)NCc2ccnc(C(F)(F)F)c2)c(C2CCN(C(=O)Cc3c(F)cccc3F)CC2)n1 [Compound A47, 4-(1-(2-(2,6-difluorophenyl)acetyl)piperidin-4-yl)-2-methyl-N-((2-(triflnoromethyl)pyridin-4-yl)methyl)pyrimidine-5-carboxamide] | –
25 | 7.97 | C/C(=N\Oc1cccc(OC(F)(F)F)c1)c1cnc(C)nc1C1CCN(C(=O)Cc2c(F)cccc2F)CC1 [Compound B7, (E)-2-(2,6-difluorophenyl)-1-(4-(2-methyl-5-(1-((3-(trifluoromethoxy)phenoxy)imino)ethyl)pyrimidin-4-yl)piperidin-1-yl)ethanone] | –
26 | 7.17 | C/C(=N\Oc1ccnc(C(F)(F)F)c1)c1cnc(C)nc1C1CCN(C(=O)Nc2c(F)cccc2F)CC1 [Compound B37, N-(2,6-Difluorophenyl)-4-{2-methyl-5-[(1E)-N-{[2-(trifluoromethyl)pyridin-4-yl]oxy}ethanimidoyl]pyrimidin-4-yl}piperidine-1-carboxamide] | –
27 | 8.59 | Cc1ncc(C(C)(O)CNc2cccc(Cl)c2)c(C2CCN(C(=O)Cc3c(F)cccc3F)CC2)n1 (stereo not drawn) [Compound D1, 1-(4-(5-(1-(3-Chlorophenylamino)-2-hydroxypropan-2-yl)-2-methylpyrimidin-4-yl)piperidin-1-yl)-2-(2,6-difluorophenyl)ethanone] | –

Source: patent publication US10035790B2, “RORγ modulators” (BRISTOL-MYERS SQUIBB COMPANY, priority 2012, dated 2018)
